Measurements taken from the kinase profiling compilation of Christmann-Franck et al. (2016).

How the values were obtained:
Test in all cases: KINOMEscan competition binding
Settings in all cases: compound 10.0 µM
RPS6KA3 KD1 (human) = RPS6KA3 KD1 (human) (UniProt P51812)
CDK9 (human) = CDK9 (human) (UniProt P50750)
MAP4K1 (human) = MAP4K1 (human) (UniProt Q92918)
NTRK3 (human) = NTRK3 (human) (UniProt Q16288)
FGFR2 (human) = FGFR2 (human) (UniProt P21802)
CDK14 (human) = CDK14 (human) (UniProt O94921)
YES1 (human) = YES1 (human) (UniProt P07947)
Sequence of YES1 (human) (P07947 whole entry, looked up): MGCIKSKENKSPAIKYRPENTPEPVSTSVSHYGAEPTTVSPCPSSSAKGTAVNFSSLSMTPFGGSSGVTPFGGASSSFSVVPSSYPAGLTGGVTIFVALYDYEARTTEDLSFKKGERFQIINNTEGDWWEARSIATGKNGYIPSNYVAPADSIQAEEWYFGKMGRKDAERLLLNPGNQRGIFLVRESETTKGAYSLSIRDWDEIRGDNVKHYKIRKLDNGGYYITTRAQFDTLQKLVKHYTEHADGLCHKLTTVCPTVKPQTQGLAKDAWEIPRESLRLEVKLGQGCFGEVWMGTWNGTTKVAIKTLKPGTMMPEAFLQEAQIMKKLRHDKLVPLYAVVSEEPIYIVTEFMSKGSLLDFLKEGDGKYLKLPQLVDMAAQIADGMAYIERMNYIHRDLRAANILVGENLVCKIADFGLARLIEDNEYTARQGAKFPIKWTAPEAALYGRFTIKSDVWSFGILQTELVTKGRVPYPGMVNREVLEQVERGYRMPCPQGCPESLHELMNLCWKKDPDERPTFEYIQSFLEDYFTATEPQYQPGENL

TSSK1B (human) = TSSK1B (human) (UniProt Q9BXA7)
CDK7 (human) = CDK7 (human) (UniProt P50613)
IKBKE (human) = IKBKE (human) (UniProt Q14164)
BMPR1B (human) = BMPR1B (human) (UniProt O00238)
LYN (human) = LYN (human) (UniProt P07948)
DCLK1 (human) = DCLK1 (human) (UniProt O15075)
BMPR2 (human) = BMPR2 (human) (UniProt Q13873)
Sequence of BMPR2 (human) (Q13873 whole entry, looked up): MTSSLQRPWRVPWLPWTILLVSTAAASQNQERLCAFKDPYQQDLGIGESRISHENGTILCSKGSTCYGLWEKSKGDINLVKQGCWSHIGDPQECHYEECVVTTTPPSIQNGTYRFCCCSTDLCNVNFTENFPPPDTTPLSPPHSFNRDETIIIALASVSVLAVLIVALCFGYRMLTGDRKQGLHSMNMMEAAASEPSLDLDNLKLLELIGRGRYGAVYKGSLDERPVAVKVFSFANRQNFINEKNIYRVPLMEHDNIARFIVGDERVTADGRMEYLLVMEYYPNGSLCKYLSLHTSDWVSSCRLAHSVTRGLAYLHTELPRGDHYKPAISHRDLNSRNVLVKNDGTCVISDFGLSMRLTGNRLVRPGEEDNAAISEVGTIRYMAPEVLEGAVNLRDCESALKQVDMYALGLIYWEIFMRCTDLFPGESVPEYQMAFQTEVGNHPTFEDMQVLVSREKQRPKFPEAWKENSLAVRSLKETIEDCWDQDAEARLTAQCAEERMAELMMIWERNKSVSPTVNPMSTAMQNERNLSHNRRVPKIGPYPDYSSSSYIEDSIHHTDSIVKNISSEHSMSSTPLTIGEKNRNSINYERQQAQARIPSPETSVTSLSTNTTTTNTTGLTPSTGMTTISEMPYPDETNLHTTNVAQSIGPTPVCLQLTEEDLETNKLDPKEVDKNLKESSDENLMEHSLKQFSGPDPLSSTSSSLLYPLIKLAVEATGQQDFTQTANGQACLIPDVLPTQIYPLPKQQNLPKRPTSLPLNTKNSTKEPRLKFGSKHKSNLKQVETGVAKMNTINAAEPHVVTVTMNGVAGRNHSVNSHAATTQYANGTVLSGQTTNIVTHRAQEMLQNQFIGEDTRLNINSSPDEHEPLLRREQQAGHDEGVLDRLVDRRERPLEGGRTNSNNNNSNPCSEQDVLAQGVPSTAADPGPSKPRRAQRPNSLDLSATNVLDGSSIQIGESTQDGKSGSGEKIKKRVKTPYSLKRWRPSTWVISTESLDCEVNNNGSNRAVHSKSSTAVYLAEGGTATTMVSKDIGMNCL

MARK3 (human) = MARK3 (human) (UniProt P27448)
LATS1 (human) = LATS1 (human) (UniProt O95835)
STK11 (human) = STK11 (human) (UniProt Q15831)
BRSK1 (human) = BRSK1 (human) (UniProt Q8TDC3)
[1] = biological target: TYK2 JH2 pseudokinase (human) (UniProt P29597)
[2] = test system: FLT3 (human), P36888 [ITD]
BMPR1A (human) = BMPR1A (human) (UniProt P36894)
RPS6KA5 KD1 (human) = RPS6KA5 KD1 (human) (UniProt O75582)
MAPK9 (human) = MAPK9 (human) (UniProt P45984)
PRKD3 (human) = PRKD3 (human) (UniProt O94806)
STK16 (human) = STK16 (human) (UniProt O75716)
Sequence of STK16 (human) (O75716 whole entry, looked up): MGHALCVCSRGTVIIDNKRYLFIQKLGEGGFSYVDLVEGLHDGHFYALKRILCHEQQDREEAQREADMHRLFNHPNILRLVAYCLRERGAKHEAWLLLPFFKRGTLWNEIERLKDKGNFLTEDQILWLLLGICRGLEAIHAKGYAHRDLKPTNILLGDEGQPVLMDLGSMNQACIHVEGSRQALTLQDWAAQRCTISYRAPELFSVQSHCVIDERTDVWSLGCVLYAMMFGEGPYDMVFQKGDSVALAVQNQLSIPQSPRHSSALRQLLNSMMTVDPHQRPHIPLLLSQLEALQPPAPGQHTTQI

BLK (human) = BLK (human) (UniProt P51451)
CDK5 (human) = CDK5 (human) (UniProt Q00535)
PLK1 (human) = PLK1 (human) (UniProt P53350)
FLT3 (human) = FLT3 (human) (UniProt P36888)
CAMK1D (human) = CAMK1D (human) (UniProt Q8IU85)
STK4 (human) = STK4 (human) (UniProt Q13043)
CDK15 (human) = CDK15 (human) (UniProt Q96Q40)
Sequence of CDK15 (human) (Q96Q40 whole entry, looked up): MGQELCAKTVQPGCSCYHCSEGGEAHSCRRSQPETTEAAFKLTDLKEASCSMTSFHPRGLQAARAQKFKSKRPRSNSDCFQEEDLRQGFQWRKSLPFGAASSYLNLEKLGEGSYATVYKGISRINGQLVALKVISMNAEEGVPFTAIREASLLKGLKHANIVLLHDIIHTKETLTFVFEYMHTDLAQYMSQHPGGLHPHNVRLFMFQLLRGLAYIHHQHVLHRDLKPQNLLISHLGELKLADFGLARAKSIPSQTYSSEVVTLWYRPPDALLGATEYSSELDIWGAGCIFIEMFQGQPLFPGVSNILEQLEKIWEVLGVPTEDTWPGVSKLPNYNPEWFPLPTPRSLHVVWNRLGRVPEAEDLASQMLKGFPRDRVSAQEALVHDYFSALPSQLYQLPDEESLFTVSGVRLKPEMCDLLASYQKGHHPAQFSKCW

GSK3B (human) = GSK3B (human) (UniProt P49841)
PIK3CB (human) = PIK3CB (human) (UniProt P42338)
[3] = biological target: JAK1 JH1 catalytic (human) (UniProt P23458)
MAP3K9 (human) = MAP3K9 (human) (UniProt P80192)
Sequence of MAP3K9 (human) (P80192 whole entry, looked up): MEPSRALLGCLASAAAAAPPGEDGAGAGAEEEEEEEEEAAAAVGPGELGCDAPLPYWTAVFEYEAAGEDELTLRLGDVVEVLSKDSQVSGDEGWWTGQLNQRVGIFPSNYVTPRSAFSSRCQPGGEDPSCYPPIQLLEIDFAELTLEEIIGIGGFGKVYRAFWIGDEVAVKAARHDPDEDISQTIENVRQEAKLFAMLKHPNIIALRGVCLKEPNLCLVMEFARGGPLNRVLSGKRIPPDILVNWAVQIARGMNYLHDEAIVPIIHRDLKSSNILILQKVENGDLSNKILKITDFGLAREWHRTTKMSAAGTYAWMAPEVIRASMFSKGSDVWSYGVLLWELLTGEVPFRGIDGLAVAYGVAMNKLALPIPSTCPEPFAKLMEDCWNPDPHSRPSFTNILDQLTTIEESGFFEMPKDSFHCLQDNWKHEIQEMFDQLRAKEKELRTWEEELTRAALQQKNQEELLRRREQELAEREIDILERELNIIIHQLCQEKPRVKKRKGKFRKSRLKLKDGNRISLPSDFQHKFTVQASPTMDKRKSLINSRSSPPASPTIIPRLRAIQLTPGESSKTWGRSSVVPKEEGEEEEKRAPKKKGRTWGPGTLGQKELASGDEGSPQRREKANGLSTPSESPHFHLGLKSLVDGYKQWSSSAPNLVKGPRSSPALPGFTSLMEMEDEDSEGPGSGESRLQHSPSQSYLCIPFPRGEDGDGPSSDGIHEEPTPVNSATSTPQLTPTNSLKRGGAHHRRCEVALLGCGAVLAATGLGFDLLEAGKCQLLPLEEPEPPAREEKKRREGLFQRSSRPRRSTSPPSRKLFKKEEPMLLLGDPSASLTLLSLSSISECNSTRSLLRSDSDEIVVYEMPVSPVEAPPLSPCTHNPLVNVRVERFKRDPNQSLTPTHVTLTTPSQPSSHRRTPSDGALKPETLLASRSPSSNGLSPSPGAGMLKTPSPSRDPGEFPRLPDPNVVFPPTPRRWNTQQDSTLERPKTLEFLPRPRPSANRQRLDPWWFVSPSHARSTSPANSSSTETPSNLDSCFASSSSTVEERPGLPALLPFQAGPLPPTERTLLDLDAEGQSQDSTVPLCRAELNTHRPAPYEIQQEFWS

MAP3K7 (human) = MAP3K7 (human) (UniProt O43318)
BRSK2 (human) = BRSK2 (human) (UniProt Q8IWQ3)
Sequence of BRSK2 (human) (Q8IWQ3 whole entry, looked up): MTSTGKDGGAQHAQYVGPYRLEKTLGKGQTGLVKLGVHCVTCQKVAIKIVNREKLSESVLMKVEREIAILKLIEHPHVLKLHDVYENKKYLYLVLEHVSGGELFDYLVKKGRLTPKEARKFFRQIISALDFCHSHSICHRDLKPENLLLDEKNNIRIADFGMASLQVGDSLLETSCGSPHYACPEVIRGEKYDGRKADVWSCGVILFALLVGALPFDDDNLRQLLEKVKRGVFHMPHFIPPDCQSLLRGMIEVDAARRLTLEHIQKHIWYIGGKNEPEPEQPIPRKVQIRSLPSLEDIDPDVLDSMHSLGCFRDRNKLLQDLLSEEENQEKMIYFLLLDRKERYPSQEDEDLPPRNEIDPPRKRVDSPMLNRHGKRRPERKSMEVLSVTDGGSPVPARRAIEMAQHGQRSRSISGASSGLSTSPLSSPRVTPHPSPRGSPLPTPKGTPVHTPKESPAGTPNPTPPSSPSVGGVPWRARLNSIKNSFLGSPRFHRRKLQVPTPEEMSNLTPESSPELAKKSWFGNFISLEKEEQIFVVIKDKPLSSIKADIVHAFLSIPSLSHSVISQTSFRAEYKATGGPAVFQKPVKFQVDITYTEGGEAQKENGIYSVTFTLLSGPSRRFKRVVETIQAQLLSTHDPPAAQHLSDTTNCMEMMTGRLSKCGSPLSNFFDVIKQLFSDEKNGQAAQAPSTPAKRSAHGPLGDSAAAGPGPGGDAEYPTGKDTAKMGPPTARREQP

LIMK1 (human) = LIMK1 (human) (UniProt P53667)
NEK2 (human) = NEK2 (human) (UniProt P51955)

Sequence of RPS6KA3 KD1 (human) (P51812 whole entry, looked up): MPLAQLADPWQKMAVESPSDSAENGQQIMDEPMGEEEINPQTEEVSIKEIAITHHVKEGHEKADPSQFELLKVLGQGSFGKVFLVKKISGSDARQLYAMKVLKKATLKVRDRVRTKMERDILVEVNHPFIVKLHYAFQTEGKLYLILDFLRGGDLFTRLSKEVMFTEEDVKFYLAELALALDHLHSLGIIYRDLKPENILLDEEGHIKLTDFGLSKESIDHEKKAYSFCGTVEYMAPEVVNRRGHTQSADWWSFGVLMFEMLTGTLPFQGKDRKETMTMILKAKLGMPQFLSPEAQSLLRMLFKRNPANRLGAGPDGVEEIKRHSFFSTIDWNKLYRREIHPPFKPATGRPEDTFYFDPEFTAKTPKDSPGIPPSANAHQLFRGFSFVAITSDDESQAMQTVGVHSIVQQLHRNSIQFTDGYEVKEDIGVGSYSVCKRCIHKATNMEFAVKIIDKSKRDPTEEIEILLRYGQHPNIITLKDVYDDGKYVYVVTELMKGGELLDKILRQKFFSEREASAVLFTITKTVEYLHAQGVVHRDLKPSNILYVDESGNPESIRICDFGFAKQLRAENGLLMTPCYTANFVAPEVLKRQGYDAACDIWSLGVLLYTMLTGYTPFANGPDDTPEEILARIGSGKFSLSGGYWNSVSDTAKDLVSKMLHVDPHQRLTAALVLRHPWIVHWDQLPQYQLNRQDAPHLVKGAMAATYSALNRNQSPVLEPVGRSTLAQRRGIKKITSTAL

| kinase still bound, per cent of control (RPS6KA3 KD1 (human)) [%] | kinase still bound, per cent of control (CDK9 (human)) [%] | kinase still bound, per cent of control (MAP4K1 (human)) [%] | kinase still bound, per cent of control (NTRK3 (human)) [%] | kinase still bound, per cent of control (FGFR2 (human)) [%] | kinase still bound, per cent of control (CDK14 (human)) [%] | kinase still bound, per cent of control (YES1 (human)) [%] | kinase still bound, per cent of control (TSSK1B (human)) [%] | kinase still bound, per cent of control (CDK7 (human)) [%] | kinase still bound, per cent of control (IKBKE (human)) [%] | kinase still bound, per cent of control (BMPR1B (human)) [%] | kinase still bound, per cent of control (LYN (human)) [%] | kinase still bound, per cent of control (DCLK1 (human)) [%] | kinase still bound, per cent of control (BMPR2 (human)) [%] | kinase still bound, per cent of control (MARK3 (human)) [%] | kinase still bound, per cent of control (LATS1 (human)) [%] | kinase still bound, per cent of control (STK11 (human)) [%] | kinase still bound, per cent of control (BRSK1 (human)) [%] | kinase still bound, per cent of control [1] [%] | kinase still bound, per cent of control [2] [%] | SMILES | also measured |
| --- | --- | --- | --- | --- | --- | --- | --- | --- | --- | --- | --- | --- | --- | --- | --- | --- | --- | --- | --- | --- | --- |
| 100 | 100 | 100 | 15 | 100 | 100 | 100 | 100 | 100 | 100 | 100 | 9.4 | 100 | 100 | 100 | 100 | 100 | 100 | 100 | 100 | Cc1ccc(C(=O)Nc2cccc(C(F)(F)F)c2)cc1Nc1cncc(C(N)=O)c1 | kinase still bound, per cent of control (BMPR1A (human)): 100%; kinase still bound, per cent of control (RPS6KA5 KD1 (human)): 100%; kinase still bound, per cent of control (MAPK9 (human)): 100%; kinase still bound, per cent of control (PRKD3 (human)): 100%; kinase still bound, per cent of control (STK16 (human)): 100%; kinase still bound, per cent of control (BLK (human)): 100%; kinase still bound, per cent of control (CDK5 (human)): 100%; kinase still bound, per cent of control (PLK1 (human)): 100%; kinase still bound, per cent of control (FLT3 (human)): 100%; kinase still bound, per cent of control (CAMK1D (human)): 100%; kinase still bound, per cent of control (STK4 (human)): 100%; kinase still bound, per cent of control (CDK15 (human)): 100%; kinase still bound, per cent of control (GSK3B (human)): 100%; kinase still bound, per cent of control (PIK3CB (human)): 100%; kinase still bound, per cent of control [3]: 100%; kinase still bound, per cent of control (MAP3K9 (human)): 100%; kinase still bound, per cent of control (MAP3K7 (human)): 100%; kinase still bound, per cent of control (BRSK2 (human)): 100%; kinase still bound, per cent of control (LIMK1 (human)): 100%; kinase still bound, per cent of control (NEK2 (human)): 100% |
| 100 | 100 | 34 | 100 | 100 | 100 | 100 | 100 | 35 | 100 | 100 | 100 | 1 | 8.6 | 7.8 | 100 | 100 | 100 | 100 | 0.85 | C=CC(=O)Nc1cccc(Oc2nc(Nc3ccc(N4CCN(C)CC4)cc3OC)ncc2Cl)c1 | kinase still bound, per cent of control (BMPR1A (human)): 100%; kinase still bound, per cent of control (RPS6KA5 KD1 (human)): 100%; kinase still bound, per cent of control (MAPK9 (human)): 100%; kinase still bound, per cent of control (PRKD3 (human)): 10%; kinase still bound, per cent of control (STK16 (human)): 27%; kinase still bound, per cent of control (BLK (human)): 0.75%; kinase still bound, per cent of control (CDK5 (human)): 100%; kinase still bound, per cent of control (PLK1 (human)): 16%; kinase still bound, per cent of control (FLT3 (human)): 4.6%; kinase still bound, per cent of control (CAMK1D (human)): 27%; kinase still bound, per cent of control (STK4 (human)): 100%; kinase still bound, per cent of control (CDK15 (human)): 100%; kinase still bound, per cent of control (GSK3B (human)): 100%; kinase still bound, per cent of control (PIK3CB (human)): 100%; kinase still bound, per cent of control [3]: 100%; kinase still bound, per cent of control (MAP3K9 (human)): 35%; kinase still bound, per cent of control (MAP3K7 (human)): 100%; kinase still bound, per cent of control (BRSK2 (human)): 100%; kinase still bound, per cent of control (LIMK1 (human)): 100%; kinase still bound, per cent of control (NEK2 (human)): 100% |
| 100 | 100 | 100 | 100 | 100 | 100 | 100 | 100 | 100 | 100 | 100 | 100 | 4 | 100 | 100 | 100 | 100 | 100 | 100 | 100 | COc1cc(C(=O)NC2CCN(C)CC2)ccc1Nc1ncc2c(n1)N(C1CCCC1)C(C)CC(=O)N2C (stereo not given) | kinase still bound, per cent of control (BMPR1A (human)): 100%; kinase still bound, per cent of control (RPS6KA5 KD1 (human)): 100%; kinase still bound, per cent of control (MAPK9 (human)): 100%; kinase still bound, per cent of control (PRKD3 (human)): 32%; kinase still bound, per cent of control (STK16 (human)): 100%; kinase still bound, per cent of control (BLK (human)): 100%; kinase still bound, per cent of control (CDK5 (human)): 100%; kinase still bound, per cent of control (PLK1 (human)): 19%; kinase still bound, per cent of control (FLT3 (human)): 100%; kinase still bound, per cent of control (CAMK1D (human)): 17%; kinase still bound, per cent of control (STK4 (human)): 100%; kinase still bound, per cent of control (CDK15 (human)): 100%; kinase still bound, per cent of control (GSK3B (human)): 100%; kinase still bound, per cent of control (PIK3CB (human)): 100%; kinase still bound, per cent of control [3]: 100%; kinase still bound, per cent of control (MAP3K9 (human)): 100%; kinase still bound, per cent of control (MAP3K7 (human)): 100%; kinase still bound, per cent of control (BRSK2 (human)): 100%; kinase still bound, per cent of control (LIMK1 (human)): 100%; kinase still bound, per cent of control (NEK2 (human)): 100% |
